Values of other authors in US20080103199A1, “TREATMENT OF PERVASIVE DEVELOPMENTAL DISORDERS” (priority 2006, published 2008).

Assays:
submissive rats = settings: treatment of the submissive subject, 3 weeks; literature (Malatynska 2002); cited from earlier work
dominant rats = settings: administered to dominant rats; literature (Malatynska 2002); cited from earlier work

CNCCCN1c2ccccc2CCc2ccccc21 [desipramine]
Effect on submissive behavior (submissive rats): reduced submissive behavior

CN1C(=O)CN=C(c2ccccc2)c2cc(Cl)ccc21 [diazepam]
Effect on submissive behavior (submissive rats): ineffective

CNCCC(Oc1ccc(C(F)(F)F)cc1)c1ccccc1 (centres unmarked) [fluoxetine]
Effect on submissive behavior (submissive rats): reduced submissive behavior

CN(C)CCCN1c2ccccc2CCc2ccccc21 [imipramine]
Effect on submissive behavior (submissive rats): reduced submissive behavior

CCCC(CCC)C(=O)[O-].[Na+] [sodium valproate]
Effect on competitive behavior of dominant rats (dominant rats): significantly reduced competitive behavior
